Test results reported in the NIST ThermoML archive (doi:10.1016/j.tca.2015.08.013).
± gives the expanded uncertainty stated by the source.

Details: for surface tension liquid-gas: Drop volume; for mass density / kinematic viscosity / speed of sound / vapor or sublimation pressure: Liquid; for mass density: Vibrating tube method; for kinematic viscosity / speed of sound: 101.33 kPa; for kinematic viscosity: Capillary tube (Ostwald / Ubbelohde) method; for speed of sound: Sing-around technique in a fixed-path interferometer; for vapor or sublimation pressure: Ebulliometric method (Recirculating still)

c1ccoc1 [furan]
Details | kinematic viscosity [m2/s] | speed of sound [m/s] | surface tension liquid-gas [mN/m] | vapor or sublimation pressure [kPa]
278.15 K | 4.59e-07 ± 9.9e-09 | 1228.1 ± 1.5 | 26.03 ± 0.23 | –
280.65 K | 4.48e-07 ± 9.7e-09 | 1216.2 ± 1.5 | 25.69 ± 0.23 | –
283.15 K | 4.39e-07 ± 9.5e-09 | 1204.5 ± 1.5 | 25.32 ± 0.23 | –
284.4 K | – | – | – | 45.59 ± 0.21
285.65 K | 4.3e-07 ± 9.3e-09 | 1192.8 ± 1.5 | 24.97 ± 0.23 | –
285.86 K | – | – | – | 48.66 ± 0.21
287.16 K | – | – | – | 51.63 ± 0.21
288.15 K | 4.2e-07 ± 9.1e-09 | 1181 ± 1.5 | 24.59 ± 0.22 | –
288.34 K | – | – | – | 54.23 ± 0.21
289.2 K | – | – | – | 56.05 ± 0.21
290.4 K | – | – | – | 59.18 ± 0.21
290.65 K | 4.09e-07 ± 8.9e-09 | 1169.2 ± 1.5 | 24.18 ± 0.22 | –
291.7 K | – | – | – | 62.26 ± 0.21
292.2 K | – | – | – | 63.6 ± 0.21
292.79 K | – | – | – | 64.53 ± 0.22
293.15 K | 3.99e-07 ± 8.6e-09 | 1157.4 ± 1.5 | 23.79 ± 0.22 | –
294.55 K | – | – | – | 69.25 ± 0.22
295.55 K | – | – | – | 72.4 ± 0.22
295.65 K | 3.89e-07 ± 8.4e-09 | 1145.3 ± 1.5 | 23.35 ± 0.22 | –
296.9 K | – | – | – | 76.25 ± 0.22
297.36 K | – | – | – | 77.63 ± 0.22
298.15 K | 3.79e-07 ± 8.2e-09 | 1133.1 ± 1.5 | 22.94 ± 0.21 | –

Details | mass density [kg/m3]
278.15 K, 99 kPa | 959.086 ± 0.23
280.65 K, 99 kPa | 955.729 ± 0.23
283.15 K, 99 kPa | 952.358 ± 0.23
283.15 K, 100 kPa | 952.36 ± 0.29
283.15 K, 2500 kPa | 954.38 ± 0.29
283.15 K, 5000 kPa | 956.94 ± 0.3
283.15 K, 7500 kPa | 959.39 ± 0.3
283.15 K, 10000 kPa | 961.81 ± 0.3
283.15 K, 20000 kPa | 970.97 ± 0.31
283.15 K, 30000 kPa | 979.35 ± 0.31
283.15 K, 40000 kPa | 987.2 ± 0.3
283.15 K, 50000 kPa | 994.5 ± 0.3
283.15 K, 60000 kPa | 1001.42 ± 0.29
285.65 K, 99 kPa | 948.976 ± 0.23
288.15 K, 99 kPa | 945.579 ± 0.23
288.15 K, 100 kPa | 945.58 ± 0.29
288.15 K, 2500 kPa | 947.81 ± 0.29
288.15 K, 5000 kPa | 950.42 ± 0.3
288.15 K, 7500 kPa | 953.03 ± 0.3
288.15 K, 10000 kPa | 955.59 ± 0.3
288.15 K, 20000 kPa | 965.03 ± 0.31
288.15 K, 30000 kPa | 973.69 ± 0.31
288.15 K, 40000 kPa | 981.69 ± 0.31
288.15 K, 50000 kPa | 989.18 ± 0.3
288.15 K, 60000 kPa | 996.21 ± 0.3
290.65 K, 99 kPa | 942.167 ± 0.23
293.15 K, 99 kPa | 938.739 ± 0.23
293.15 K, 100 kPa | 938.74 ± 0.29
293.15 K, 2500 kPa | 940.99 ± 0.29
293.15 K, 5000 kPa | 943.7 ± 0.3
293.15 K, 7500 kPa | 946.38 ± 0.3
293.15 K, 10000 kPa | 948.97 ± 0.3
293.15 K, 20000 kPa | 958.75 ± 0.31
293.15 K, 30000 kPa | 967.71 ± 0.32
293.15 K, 40000 kPa | 976.04 ± 0.32
293.15 K, 50000 kPa | 983.77 ± 0.31
293.15 K, 60000 kPa | 990.98 ± 0.3
295.65 K, 99 kPa | 935.294 ± 0.23
298.15 K, 99 kPa | 931.835 ± 0.23
298.15 K, 100 kPa | 931.84 ± 0.29
298.15 K, 2500 kPa | 934.31 ± 0.29
298.15 K, 5000 kPa | 937.14 ± 0.3
298.15 K, 7500 kPa | 939.92 ± 0.3
298.15 K, 10000 kPa | 942.68 ± 0.31
298.15 K, 20000 kPa | 952.79 ± 0.32
298.15 K, 30000 kPa | 961.99 ± 0.32
298.15 K, 40000 kPa | 970.53 ± 0.32
298.15 K, 50000 kPa | 978.42 ± 0.32
